Measured values reported in ChEMBL document CHEMBL3885861, “Open TG-GATES”.

Organism: Rattus norvegicus
Experiment: Open TG-GATES - Regimen: Daily Repeat
Assay type: toxicity, organism-based, Sprague-Dawley
Parameters: regimen Daily Repeat, gender Male, age 6 weeks
Settings: in vivo, po, route gavage; for APTT / Bas / Eos / Fbg / Hb / Ht / Lym / MCHC / MCV / Mono / Neu / PT / Plat / RBC / Ret / WBC: tissue Blood; for KIDNEY_L / KIDNEY_R / KIDNEY_TOTAL: tissue Kidney; for LIVER: tissue Liver; for ALP / ALT / AST / CRE / DBIL / GLC / K / LDH / Na / PL / RALB / TBIL / TC / TG / TP / gamma-GTP / IP: tissue Plasma
[1] = 200 mg/kg, 72 h, dose level Middle, time 3 day
[2] = 200 mg/kg, […], dose level Middle, time 7 day
[3] = 200 mg/kg, […], dose level Middle, time 14 day
[4] = 200 mg/kg, […], dose level Middle, time 28 day

O=C1NC(=O)C(c2ccccc2)(c2ccccc2)N1 [PHENYTOIN]
TERMINAL_BW [1]: 220.5 g | APTT [1]: 21 s | Bas [1]: 0% | Eos [1]: 0.8% | Fbg [1]: 304.4 mg/dL | Hb [1]: 13 g/dL | Ht [1]: 39.4% | Lym [1]: 77.4% | MCHC [1]: 33.1% | MCV [1]: 63.8 fL | Mono [1]: 2.4% | Neu [1]: 18.4% | PT [1]: 15.5 s | Plat [1]: 117 x10_4/uL | RBC [1]: 618.4 x10_4/ul | Ret [1]: 7.3% | WBC [1]: 98.2 x10_2/uL | KIDNEY_L [1]: 0.9 g | KIDNEY_R [1]: 0.9 g | KIDNEY_TOTAL [1]: 1.9 g | LIVER [1]: 10.5 g | ALP [1]: 1568.8 IU/L | ALT [1]: 45.8 IU/L | AST [1]: 75.4 IU/L | CRE [1]: 0.1 mg/dL | DBIL [1]: 0.008 mg/dL | GLC [1]: 185.8 mg/dL | K [1]: 4 meq/L | LDH [1]: 188 IU/L | Na [1]: 143.4 meq/L | PL [1]: 147 mg/dL | RALB [1]: 2.9 g/dL | TBIL [1]: 0.012 mg/dL | TC [1]: 84.4 mg/dL | TG [1]: 85.2 mg/dL | TP [1]: 5.8 g/dL | gamma-GTP [1]: 1 IU/L | TERMINAL_BW [2]: 247.9 g | TERMINAL_BW [3]: 301 g | TERMINAL_BW [4]: 393.6 g | APTT [2]: 22.3 s | Bas [2]: 0% | Eos [2]: 0.6% | Fbg [2]: 324 mg/dL | Hb [2]: 13.1 g/dL | Ht [2]: 38.8% | Lym [2]: 79.8% | MCHC [2]: 33.7% | MCV [2]: 62.5 fL | Mono [2]: 2.4% | Neu [2]: 16.2% | PT [2]: 15.6 s | Plat [2]: 123.7 x10_4/uL | RBC [2]: 621.2 x10_4/ul | Ret [2]: 6% | WBC [2]: 109.9 x10_2/uL | APTT [3]: 22.3 s | Bas [3]: 0% | Eos [3]: 0.8% | Fbg [3]: 285.6 mg/dL | Hb [3]: 14.1 g/dL | Ht [3]: 41.4% | Lym [3]: 82.6% | MCHC [3]: 34.1% | MCV [3]: 62 fL | Mono [3]: 2.2% | Neu [3]: 13.6% | PT [3]: 16.3 s | Plat [3]: 121.5 x10_4/uL | RBC [3]: 669.8 x10_4/ul | Ret [3]: 4.7% | WBC [3]: 112.2 x10_2/uL | APTT [4]: 23.4 s | Bas [4]: 0% | Eos [4]: 1.2% | Fbg [4]: 332.6 mg/dL | Hb [4]: 15.4 g/dL | Ht [4]: 43.4% | Lym [4]: 84% | MCHC [4]: 35.5% | MCV [4]: 58.1 fL | Mono [4]: 1.4% | Neu [4]: 12.6% | PT [4]: 15.8 s | Plat [4]: 122.2 x10_4/uL | RBC [4]: 747 x10_4/ul | Ret [4]: 2.9% | WBC [4]: 117 x10_2/uL | KIDNEY_L [2]: 1.1 g | KIDNEY_R [2]: 1 g | KIDNEY_TOTAL [2]: 2.1 g | KIDNEY_L [3]: 1.2 g | KIDNEY_R [3]: 1.2 g | KIDNEY_TOTAL [3]: 2.4 g | KIDNEY_L [4]: 1.4 g | KIDNEY_R [4]: 1.5 g | KIDNEY_TOTAL [4]: 2.9 g | LIVER [2]: 12.4 g | LIVER [3]: 13.9 g | LIVER [4]: 17.5 g | ALP [2]: 1383 IU/L | ALT [2]: 39.4 IU/L | AST [2]: 61 IU/L | CRE [2]: 0.2 mg/dL | DBIL [2]: 0.004 mg/dL | GLC [2]: 187.6 mg/dL | IP [2]: 6.9 mg/dL | K [2]: 4.1 meq/L | LDH [2]: 159.2 IU/L | Na [2]: 141.8 meq/L | PL [2]: 146.4 mg/dL | RALB [2]: 3.1 g/dL | TBIL [2]: 0.024 mg/dL | TC [2]: 74.8 mg/dL | TG [2]: 120.4 mg/dL | TP [2]: 5.8 g/dL | gamma-GTP [2]: 1 IU/L | ALP [3]: 1572.8 IU/L | ALT [3]: 41.8 IU/L | AST [3]: 65.8 IU/L | CRE [3]: 0.2 mg/dL | DBIL [3]: 0 mg/dL | GLC [3]: 174.2 mg/dL | IP [3]: 7 mg/dL | K [3]: 4.2 meq/L | LDH [3]: 130 IU/L | Na [3]: 142.8 meq/L | PL [3]: 147 mg/dL | RALB [3]: 3.1 g/dL | TBIL [3]: 0.002 mg/dL | TC [3]: 70.6 mg/dL | TG [3]: 163.4 mg/dL | TP [3]: 5.6 g/dL | gamma-GTP [3]: 1.6 IU/L | ALP [4]: 1131.8 IU/L | ALT [4]: 44 IU/L | AST [4]: 74.6 IU/L | CRE [4]: 0.2 mg/dL | DBIL [4]: 0.002 mg/dL | GLC [4]: 186.4 mg/dL | IP [4]: 6.3 mg/dL | K [4]: 3.9 meq/L | LDH [4]: 146.2 IU/L | Na [4]: 143.6 meq/L | PL [4]: 160 mg/dL | RALB [4]: 3.2 g/dL | TBIL [4]: 0.028 mg/dL | TC [4]: 81 mg/dL | TG [4]: 138.4 mg/dL | TP [4]: 6.3 g/dL | gamma-GTP [4]: 1.6 IU/L | TERMINAL_BW (600 mg/kg, 72 h, dose level High, time 3 day): 211.2 g
